Key:
[1] = target: T1, JAK1 (Homo sapiens, UniProt P23458); experiment: JAK1 enzyme inhibition test (LANCE method); assay type: biochemical; conditions: for inhibition at 1 µM: test compound 1 μM, read-out: Inhibitory rate (%) JAK1 1 μM
T1 construct: purchased Invitrogen
Outline: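 TR-FRET (LANCE) kinase assay using JAK1 at 187.5 ng/mL, ULight-JAK1 peptide at 300 nM and ATP at 150 μM, given as solution concentrations before mixing. Buffer was 50 mM HEPES pH 7.5 with 10 mM MgCl2 and 2 mM DTT, and the reaction ran 1 h at room temperature. Eu anti-phosphotyrosine signal at 665 nm was expressed relative to a no-enzyme well, taken as 100% inhibition.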

[2] = target: T2, Tyk2 (Homo sapiens, UniProt P29597); experiment: Tyk2 enzyme inhibition test (LANCE method); assay type: biochemical; conditions: for inhibition at 1 µM: test compound 1 μM, read-out: Inhibitory rate (%) Tyk2 1 μM
T2 construct: purchased Invitrogen
T2 sequence (P29597 whole entry): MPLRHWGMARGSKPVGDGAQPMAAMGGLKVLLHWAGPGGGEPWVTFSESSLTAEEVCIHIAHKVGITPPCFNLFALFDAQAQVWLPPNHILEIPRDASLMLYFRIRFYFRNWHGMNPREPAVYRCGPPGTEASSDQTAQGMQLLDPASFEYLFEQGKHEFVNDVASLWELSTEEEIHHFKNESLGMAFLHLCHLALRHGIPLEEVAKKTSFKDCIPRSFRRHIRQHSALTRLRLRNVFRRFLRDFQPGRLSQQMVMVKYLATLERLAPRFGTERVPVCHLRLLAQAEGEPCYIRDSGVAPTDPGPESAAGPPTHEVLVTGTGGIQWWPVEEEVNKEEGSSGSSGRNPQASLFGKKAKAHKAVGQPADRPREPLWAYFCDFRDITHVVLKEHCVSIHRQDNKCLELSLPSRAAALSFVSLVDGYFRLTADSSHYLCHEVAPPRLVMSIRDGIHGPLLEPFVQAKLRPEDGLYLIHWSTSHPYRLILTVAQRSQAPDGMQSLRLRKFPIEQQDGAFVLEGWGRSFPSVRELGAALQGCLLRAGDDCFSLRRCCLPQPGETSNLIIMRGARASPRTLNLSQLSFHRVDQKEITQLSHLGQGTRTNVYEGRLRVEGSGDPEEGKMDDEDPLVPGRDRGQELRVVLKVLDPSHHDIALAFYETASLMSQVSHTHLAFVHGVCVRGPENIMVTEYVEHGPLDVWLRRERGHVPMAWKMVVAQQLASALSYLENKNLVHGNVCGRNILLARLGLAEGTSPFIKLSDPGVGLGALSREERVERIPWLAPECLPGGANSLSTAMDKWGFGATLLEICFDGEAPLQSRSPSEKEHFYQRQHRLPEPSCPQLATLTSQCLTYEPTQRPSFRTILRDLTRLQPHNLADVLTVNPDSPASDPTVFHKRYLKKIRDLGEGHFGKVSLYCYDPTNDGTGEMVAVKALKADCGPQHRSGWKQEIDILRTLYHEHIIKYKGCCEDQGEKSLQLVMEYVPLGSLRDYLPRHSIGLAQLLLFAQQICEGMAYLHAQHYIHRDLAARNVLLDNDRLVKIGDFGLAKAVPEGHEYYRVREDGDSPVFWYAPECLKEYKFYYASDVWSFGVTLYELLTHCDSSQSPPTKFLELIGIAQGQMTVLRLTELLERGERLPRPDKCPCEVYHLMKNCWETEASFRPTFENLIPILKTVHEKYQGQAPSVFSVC
Outline: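 Recombinant Tyk2 (375 ng/mL stock) with ULight-JAK1 peptide (300 nM stock) and ATP (30 μM stock) in HEPES pH 7.5/MgCl2/EGTA/DTT buffer, 1 h at room temperature. Stopped with EDTA plus Eu-anti-phosphotyrosine antibody; TR-FRET read at 665 nm after 1 h. No-enzyme wells define 100% inhibition.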

T1 sequence (P23458 whole entry): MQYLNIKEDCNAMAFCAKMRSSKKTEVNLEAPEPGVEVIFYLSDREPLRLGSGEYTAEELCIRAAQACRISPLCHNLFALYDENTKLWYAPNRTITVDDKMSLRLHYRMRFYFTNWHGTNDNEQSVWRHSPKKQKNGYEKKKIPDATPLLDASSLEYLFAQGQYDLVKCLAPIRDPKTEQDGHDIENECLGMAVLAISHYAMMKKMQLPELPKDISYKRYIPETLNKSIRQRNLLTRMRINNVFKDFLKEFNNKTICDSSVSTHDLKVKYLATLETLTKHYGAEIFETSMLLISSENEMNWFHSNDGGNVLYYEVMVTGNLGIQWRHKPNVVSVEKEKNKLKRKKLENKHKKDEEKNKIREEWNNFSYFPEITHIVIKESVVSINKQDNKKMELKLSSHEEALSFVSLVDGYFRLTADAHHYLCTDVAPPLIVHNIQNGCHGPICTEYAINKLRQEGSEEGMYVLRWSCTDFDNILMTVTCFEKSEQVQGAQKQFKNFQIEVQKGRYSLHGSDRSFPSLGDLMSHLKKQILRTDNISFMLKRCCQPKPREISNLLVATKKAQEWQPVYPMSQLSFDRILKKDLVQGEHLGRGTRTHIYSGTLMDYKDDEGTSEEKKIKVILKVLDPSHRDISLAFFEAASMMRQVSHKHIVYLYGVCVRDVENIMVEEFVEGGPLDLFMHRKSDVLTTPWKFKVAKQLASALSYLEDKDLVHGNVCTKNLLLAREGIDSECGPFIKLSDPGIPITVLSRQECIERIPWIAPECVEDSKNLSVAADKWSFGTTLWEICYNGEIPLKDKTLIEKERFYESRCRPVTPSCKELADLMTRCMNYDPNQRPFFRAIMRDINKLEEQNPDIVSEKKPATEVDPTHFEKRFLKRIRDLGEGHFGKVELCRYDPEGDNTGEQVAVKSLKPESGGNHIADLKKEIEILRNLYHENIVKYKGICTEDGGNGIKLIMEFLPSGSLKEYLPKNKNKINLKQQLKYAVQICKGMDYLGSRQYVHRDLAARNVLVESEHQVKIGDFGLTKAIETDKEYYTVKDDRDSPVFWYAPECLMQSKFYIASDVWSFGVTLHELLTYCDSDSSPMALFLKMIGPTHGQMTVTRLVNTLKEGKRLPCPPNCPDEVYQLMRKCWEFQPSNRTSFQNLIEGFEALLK

Row | SMILES | inhibition at 1 µM [1] | inhibition at 1 µM [2] | inhibition at 10 µM ([1]; test compound 10 μM, read-out: Inhibitory rate (%) JAK1 10 μM) | inhibition at 10 µM ([2]; test compound 10 μM, read-out: Inhibitory rate (%) Tyk2 10 μM)
1 | O=C(NCCO)c1ccc(-c2nn(-c3c(F)cccc3F)c3c(Cl)c[nH]c(=O)c23)cc1 [Example 232, 4-(7-chloro-1-(2,6-difluorophenyl)-4-oxo-4,5-dihydro-1H-pyrazolo[4,3-c]pyridin-3-yl)-N-(2-hydroxyethyl)benzamide] | 60% | 100% | – | –
2 | O=c1[nH]ccc2c1c(-c1csc(N3CCOCC3)c1)nn2-c1c(F)cccc1F [Example 234, 1-(2,6-difluorophenyl)-3-(5-(morpholin-4-yl)-3-thienyl)-1,5-dihydro-4H-pyrazolo[4,3-c]pyridin-4-one] | 99% | 99% | – | –
3 | Cc1c[nH]c(=O)c2c(-c3ccc(N4CCOCC4)cc3)nn(-c3c(F)cccc3F)c12 [Example 235, 1-(2,6-difluorophenyl)-7-methyl-3-(4-(morpholin-4-yl)phenyl)-1,5-dihydro-4H-pyrazolo[4,3-c]pyridin-4-one] | 92% | 99% | – | –
4 | O=c1[nH]cc(Cl)c2c1c(-c1ccc(N3CCSCC3)cc1)nn2-c1c(F)cccc1F [Example 236, 7-chloro-1-(2,6-difluorophenyl)-3-(4-(thiomorpholin-4-yl)phenyl)-1,5-dihydro-4H-pyrazolo[4,3-c]pyridin-4-one] | 65% | 99% | – | –
5 | CN1CCN(c2ccc(-c3nn(-c4c(F)cccc4F)c4c(Cl)c[nH]c(=O)c34)cc2)C1=O [Example 239, 7-chloro-1-(2,6-difluorophenyl)-3-(4-(3-methyl-2-oxoimidazolidin-1-yl)phenyl)-1,5-dihydro-4H-pyrazolo[4,3-c]pyridin-4-one] | 46% | 99% | – | –
6 | COCCN(C)c1ccc(-c2nn(-c3c(F)cccc3F)c3c(Cl)c[nH]c(=O)c23)cc1 [Example 241, 7-chloro-1-(2,6-difluorophenyl)-3-(4-((2-methoxyethyl)(methyl)amino)phenyl)-1,5-dihydro-4H-pyrazolo[4,3-c]pyridin-4-one] | 53% | 98% | – | –
7 | O=c1[nH]cc(Cl)c2c1c(-c1ccc(N3CCS(=O)(=O)CC3)cc1)nn2-c1c(F)cccc1F [Example 242, 7-chloro-1-(2,6-difluorophenyl)-3-(4-(1,1-dioxidothiomorpholin-4-yl)phenyl)-1,5-dihydro-4H-pyrazolo[4,3-c]pyridin-4-one] | 27% | 97% | – | –
8 | CC(C)(C)n1nc(-c2ccc(N3CCOCC3)cc2)c2c(=O)[nH]ccc21 [Example 243, 1-tert-butyl-3-(4-(morpholin-4-yl)phenyl)-1,5-dihydro-4H-pyrazolo[4,3-c]pyridin-4-one] | 52% | 76% | – | –
9 | N#Cc1cc(F)c(-n2nc(-c3ccc(N4CCOCC4)cc3)c3c(=O)[nH]ccc32)c(F)c1 [Example 244, 3,5-difluoro-4-(3-(4-(morpholin-4-yl)phenyl)-4-oxo-4,5-dihydro-1H-pyrazolo[4,3-c]pyridin-1-yl)benzonitrile] | 89% | 97% | – | –
10 | C[C@H]1COCCN1c1ccc(-c2nn(-c3c(F)cccc3F)c3cc[nH]c(=O)c23)cc1 [Example 245, 1-(2,6-difluorophenyl)-3-(4-((3S)-3-methylmorpholin-4-yl)phenyl)-1,5-dihydro-4H-pyrazolo[4,3-c]pyridin-4-one] | 96% | 100% | – | –
11 | C[C@@H]1COCCN1c1ccc(-c2nn(-c3c(F)cccc3F)c3cc[nH]c(=O)c23)cc1 [Example 246, 1-(2,6-difluorophenyl)-3-(4-((3R)-3-methylmorpholin-4-yl)phenyl)-1,5-dihydro-4H-pyrazolo[4,3-c]pyridin-4-one] | 94% | 99% | – | –
12 | NC(=O)c1cc(-c2nn(-c3ccccn3)c3cc[nH]c(=O)c23)cs1 [Example 247, 4-(4-oxo-1-(pyridin-2-yl)-4,5-dihydro-1H-pyrazolo[4,3-c]pyridin-3-yl)thiophene-2-carboxamide] | 86% | 88% | – | –
13 | CC(C)(C)n1nc(Nc2cccc(S(N)(=O)=O)c2)c2c(=O)[nH]ccc21 [Example 248, 3-((1-tert-butyl-4-oxo-4,5-dihydro-1H-pyrazolo[4,3-c]pyridin-3-yl)amino)benzenesulfonamide] | 96% | 70% | – | –
14 | COc1ccc(CNc2nn(C(C)(C)C)c3cc[nH]c(=O)c23)cc1 [Example 249, 1-tert-butyl-3-((4-methoxybenzyl)amino)-1,5-dihydro-4H-pyrazolo[4,3-c]pyridin-4-one] | – | – | 30% | 25%
15 | CC(C)(C)n1nc(Nc2ccccc2)c2c(=O)[nH]ccc21 [Example 250, 3-anilino-1-tert-butyl-1,5-dihydro-4H-pyrazolo[4,3-c]pyridin-4-one] | 93% | 69% | – | –
16 | NC(=O)c1cc(F)c(-n2nc(-c3ccc(N4CCOCC4)cc3)c3c(=O)[nH]ccc32)c(F)c1 [Example 251, 3,5-difluoro-4-(3-(4-(morpholin-4-yl)phenyl)-4-oxo-4,5-dihydro-1H-pyrazolo[4,3-c]pyridin-1-yl)benzamide] | 96% | 99% | – | –
17 | O=c1[nH]ccc2c1c(-c1ccc(C3=CCOCC3)cc1)nn2-c1c(F)cccc1F [Example 256, 1-(2,6-difluorophenyl)-3-(4-(3,6-dihydro-2H-pyran-4-yl)phenyl)-1,5-dihydro-4H-pyrazolo[4,3-c]pyridin-4-one] | 92% | 98% | – | –
18 | O=c1[nH]ccc2c1c(-c1ccc(C3CCOCC3)cc1)nn2-c1c(F)cccc1F [Example 257, 1-(2,6-difluorophenyl)-3-(4-(tetrahydro-2H-pyran-4-yl)phenyl)-1,5-dihydro-4H-pyrazolo[4,3-c]pyridin-4-one] | 96% | 98% | – | –

The next lines start with the values.

Row | inhibition at 1 µM [1] | inhibition at 1 µM [2] | inhibition at 10 µM ([1]; test compound 10 μM, read-out: Inhibitory rate (%) JAK1 10 μM) | inhibition at 10 µM ([2]; test compound 10 μM, read-out: Inhibitory rate (%) Tyk2 10 μM) | SMILES
19 | 87% | 99% | – | – | O=C(NCCO)c1ccc(-c2nn(-c3c(F)cccc3F)c3cc[nH]c(=O)c23)cc1 [Example 237, 4-(1-(2,6-difluorophenyl)-4-oxo-4,5-dihydro-1H-pyrazolo[4,3-c]pyridin-3-yl)-N-(2-hydroxyethyl)benzamide]
20 | 72% | 91% | – | – | Cn1cc(-c2nn(-c3c(F)cccc3F)c3cc[nH]c(=O)c23)ccc1=O [Example 238, 1-(2,6-difluorophenyl)-3-(1-methyl-6-oxo-1,6-dihydropyridin-3-yl)-1,5-dihydro-4H-pyrazolo[4,3-c]pyridin-4-one]
21 | 88% | 99% | – | – | CN1CCN(c2ccc(-c3nn(-c4c(F)cccc4F)c4cc[nH]c(=O)c34)cc2)C1=O [Example 240, 1-(2,6-difluorophenyl)-3-(4-(3-methyl-2-oxoimidazolidin-1-yl)phenyl)-1,5-dihydro-4H-pyrazolo[4,3-c]pyridin-4-one]
22 | 91% | 98% | – | – | NC(=O)Cc1cccc(-c2nn(-c3c(F)cccc3F)c3cc[nH]c(=O)c23)c1 [Example 252, 2-(3-(1-(2,6-difluorophenyl)-4-oxo-4,5-dihydro-1H-pyrazolo[4,3-c]pyridin-3-yl)phenyl)acetamide]
23 | 87% | 98% | – | – | CNC(=O)Cc1cccc(-c2nn(-c3c(F)cccc3F)c3cc[nH]c(=O)c23)c1 [Example 253, 2-(3-(1-(2,6-difluorophenyl)-4-oxo-4,5-dihydro-1H-pyrazolo[4,3-c]pyridin-3-yl)phenyl)-N-methylacetamide]
24 | 65% | 98% | – | – | NC(=O)c1cccc(-c2nn(-c3c(F)cccc3F)c3c(Cl)c[nH]c(=O)c23)c1 [Example 254, 3-(7-chloro-1-(2,6-difluorophenyl)-4-oxo-4,5-dihydro-1H-pyrazolo[4,3-c]pyridin-3-yl)benzamide]
25 | 93% | 98% | – | – | NC(=O)c1cccc(-c2nn(-c3c(F)cccc3F)c3cc[nH]c(=O)c23)c1 [Example 255, 3-(1-(2,6-difluorophenyl)-4-oxo-4,5-dihydro-1H-pyrazolo[4,3-c]pyridin-3-yl)benzamide]
26 | 43% | 88% | – | – | CN(C)Cc1cccc(-c2nn(-c3c(F)cccc3F)c3cc[nH]c(=O)c23)c1 [Example 258, 1-(2,6-difluorophenyl)-3-(3-((dimethylamino)methyl)phenyl)-1,5-dihydro-4H-pyrazolo[4,3-c]pyridin-4-one]
27 | 59% | 81% | – | – | CCOC(=O)c1ccc(-c2nn(-c3c(F)cccc3F)c3cc[nH]c(=O)c23)cn1 [Example 259, ethyl 5-(1-(2,6-difluorophenyl)-4-oxo-4,5-dihydro-1H-pyrazolo[4,3-c]pyridin-3-yl)pyridine-2-carboxylate]
28 | 77% | 94% | – | – | COC(=O)c1ccc(-c2nn(-c3c(F)cccc3F)c3cc[nH]c(=O)c23)cc1 [Example 260, methyl 4-(1-(2,6-difluorophenyl)-4-oxo-4,5-dihydro-1H-pyrazolo[4,3-c]pyridin-3-yl)benzoate]
29 | 41% | 94% | – | – | O=c1[nH]ccc2c1c(-c1cccc(CN3CCC(F)(F)C3)c1)nn2-c1c(F)cccc1F [Example 261, 1-(2,6-difluorophenyl)-3-(3-((3,3-difluoropyrrolidin-1-yl)methyl)phenyl)-1,5-dihydro-4H-pyrazolo[4,3-c]pyridin-4-one]
